Tests used:
Plasmopara viticola = assay: whole plant or invertebrate; type: in vivo; details: foliar, read-out: control of Plasmopara viticola
Phytophthora infestans = assay: whole plant or invertebrate; type: in vivo; details: in Solanum lycopersicum, foliar, read-out: control of Phytophthora infestans
Pythium ultimum = assay: Pythium ultimum/liquid culture (seedling damping off); type: cell-based; details: Globisporangium ultimum, liquid culture, growth inhibition determined photometrically 2-3 days after application, compared to untreated control
Experimental: Mycelia fragments and oospores of a newly grown liquid culture of the fungus are directly mixed into nutrient broth (PDB potato dextrose broth). After placing a (DMSO) solution of test compound into a microtiter plate (96-well format), the nutrient broth containing the fungal mycelia/spore mixture is added. The test plates are incubated at 24° C. and the inhibition of growth is determined photometrically 2-3 days after application.

[1] = system: Monographella nivalis (Microdochium nivale); assay: Monographella nivalis (Microdochium nivale)/liquid culture (foot rot cereals); type: cell-based; details: liquid culture, growth inhibition determined photometrically 4-5 days after application, compared to untreated control
Experimental: The fungicidal activity of the compounds of the invention have been tested as follows: • Monographella nivalis (Microdochium nivale)/liquid culture (foot rot cereals) Conidia of the fungus from cryogenic storage are directly mixed into nutrient broth (PDB potato dextrose broth). After placing a (DMSO) solution of test compound into a microtiter plate (96-well format), the nutrient broth containing the fungal spores is added. The test plates are incubated at 24° C. and the inhibition of growth is determined photometrically 4-5 days after application.

Compound: COC(=O)Nc1ccc(-c2cnc3cnc(C(=O)N(C)c4ccc(C#N)c(OC)c4)cn23)cc1 [Compound 59, methyl N-[4-[6-[(4-cyano-3-methoxy-phenyl)-methyl-carbamoyl]imidazo[1,2-a]pyrazin-3-yl]phenyl]carbamate]
- pest or weed control at 200 ppm (Plasmopara viticola): ≥ 80%
- pest or weed control at 200 ppm (Phytophthora infestans): ≥ 80%
- inhibition of growth at 20 ppm (Pythium ultimum): ≥ 80%

Compound: COC(=O)Nc1ccc(-c2cnc3cnc(C(=O)N4CCN(C)c5cc(F)ccc54)cn23)cn1 [Compound 53, methyl N-[5-[6-(6-fluoro-4-methyl-2,3-dihydroquinoxaline-1-carbonyl)imidazo[1,2-a]pyrazin-3-yl]-2-pyridyl]carbamate]
- inhibition of growth at 20 ppm (Pythium ultimum): ≥ 80%

Compound: COC(=O)Nc1ccc(-c2cnc3cnc(C(=O)N(CC#N)c4ccc(Cl)c(OC)c4)cn23)cn1 [Compound 3, methyl N-[5-[6-[(4-chloro-3-methoxy-phenyl)-(cyanomethyl)carbamoyl]imidazo[1,2-a]pyrazin-3-yl]-2-pyridyl]carbamate]
- pest or weed control at 200 ppm (Phytophthora infestans): ≥ 80%
- inhibition of growth at 20 ppm (Pythium ultimum): ≥ 80%

Compound: CNC(=O)Nc1ccc(-c2cnc3cnc(C(=O)N(C)c4ccc(Cl)cc4)cn23)cc1 [Compound 6, N-(4-chlorophenyl)-N-methyl-3-[4-(methylcarbamoylamino)phenyl]imidazo[1,2-a]pyrazine-6-carboxamide]
- pest or weed control at 200 ppm (Plasmopara viticola): ≥ 80%
- inhibition of growth at 20 ppm [1]: ≥ 80%

Compound: COc1cc(N(C)C(=O)c2cn3c(-c4ccc(NC(=O)C5CC5)nc4)cnc3cn2)ccc1F [Compound 50, 3-[6-(cyclopropanecarbonylamino)-3-pyridyl]-N-(4-fluoro-3-methoxy-phenyl)-N-methyl-imidazo[1,2-a]pyrazine-6-carboxamide]
- pest or weed control at 200 ppm (Phytophthora infestans): ≥ 80%

Compound: COC(=O)Nc1ccc(-c2cnc3cnc(C(=O)N(C)c4ccc(C#N)cc4)cn23)cc1 [Compound 9, methyl N-[4-[6-[(4-cyanophenyl)-methyl-carbamoyl]imidazo[1,2-a]pyrazin-3-yl]phenyl]carbamate]
- inhibition of growth at 20 ppm (Pythium ultimum): ≥ 80%

Compound: COC(=O)Nc1ccc(-c2cnc3cnc(C(=O)N4CCCc5cc(F)ccc54)cn23)cn1 [Compound 42, methyl N-[5-[6-(6-fluoro-3,4-dihydro-2H-quinoline-1-carbonyl)imidazo[1,2-a]pyrazin-3-yl]-2-pyridyl]carbamate]
- pest or weed control at 200 ppm (Phytophthora infestans): ≥ 80%

Compound: COc1cc(N(C)C(=O)c2cn3c(-c4ccc(NC(C)=O)cc4)cnc3cn2)ccc1F [Compound 51, 3-(4-acetamidophenyl)-N-(4-fluoro-3-methoxy-phenyl)-N-methyl-imidazo[1,2-a]pyrazine-6-carboxamide]
- pest or weed control at 200 ppm (Phytophthora infestans): ≥ 80%

Compound: COC(=O)Nc1ccc(-c2cnc3cnc(C(=O)N(C)c4ccc(F)c(OC)c4)cn23)cn1 [Compound 4, methyl N-[5-[6-[(4-fluoro-3-methoxy-phenyl)-methyl-carbamoyl]imidazo[1,2-a]pyrazin-3-yl]-2-pyridyl]carbamate]
- pest or weed control at 200 ppm (Phytophthora infestans): ≥ 80%
- inhibition of growth at 20 ppm (Pythium ultimum): ≥ 80%

Compound: CC(=O)Nc1ccc(-c2cnc3cnc(C(=O)N(C)c4ccc(Br)cc4)cn23)cc1 [Compound 34, 3-(4-acetamidophenyl)-N-(4-bromophenyl)-N-methyl-imidazo[1,2-a]pyrazine-6-carboxamide]
- inhibition of growth at 20 ppm [1]: ≥ 80%
- inhibition of growth at 20 ppm (Pythium ultimum): ≥ 80%

Compound: COC(=O)Nc1ccc(-c2cnc3cnc(C(=O)N(C)c4ccc(Cl)cc4)cn23)cc1 [Compound 28, methyl N-[4-[6-[(4-chlorophenyl)-methyl-carbamoyl]imidazo[1,2-a]pyrazin-3-yl]phenyl]carbamate]
- pest or weed control at 200 ppm (Plasmopara viticola): ≥ 80%
- inhibition of growth at 20 ppm [1]: ≥ 80%
- inhibition of growth at 20 ppm (Pythium ultimum): ≥ 80%

Compound: CC(=O)Nc1ccc(-c2cnc3cnc(C(=O)N(C)c4ccc(F)cc4)cn23)cc1 [Compound 38, 3-(4-acetamidophenyl)-N-(4-fluorophenyl)-N-methyl-imidazo[1,2-a]pyrazine-6-carboxamide]
- inhibition of growth at 20 ppm (Pythium ultimum): ≥ 80%

Compound: COC(=O)Nc1ccc(-c2cnc3cnc(C(=O)N(C)c4ccc(F)c(OC)c4)cn23)cc1 [Compound 58, methyl N-[4-[6-[(4-fluoro-3-methoxy-phenyl)-methyl-carbamoyl]imidazo[1,2-a]pyrazin-3-yl]phenyl]carbamate]
- pest or weed control at 200 ppm (Plasmopara viticola): ≥ 80%
- pest or weed control at 200 ppm (Phytophthora infestans): ≥ 80%
- inhibition of growth at 20 ppm (Pythium ultimum): ≥ 80%

Compound: CCOC(=O)Nc1ccc(-c2cnc3cnc(C(=O)N(C)c4ccc(Cl)cc4)cn23)cc1 [Compound 8, ethyl N-[4-[6-[(4-chlorophenyl)-methyl-carbamoyl]imidazo[1,2-a]pyrazin-3-yl]phenyl]carbamate]
- pest or weed control at 200 ppm (Plasmopara viticola): ≥ 80%
- inhibition of growth at 20 ppm [1]: ≥ 80%

Compound: CC(=O)Nc1ccc(-c2cnc3cnc(C(=O)N(C)c4ccc(C#N)cc4)cn23)cc1 [Compound 36, 3-(4-acetamidophenyl)-N-(4-cyanophenyl)-N-methyl-imidazo[1,2-a]pyrazine-6-carboxamide]
- pest or weed control at 200 ppm (Plasmopara viticola): ≥ 80%

Compound: COC(=O)Nc1ccc(-c2cnc3cnc(C(=O)N(CC#N)c4ccc(F)c(OC)c4)cn23)cn1 [Compound 2, methyl N-[5-[6-[cyanomethyl-(4-fluoro-3-methoxy-phenyl)carbamoyl]imidazo[1,2-a]pyrazin-3-yl]-2-pyridyl]carbamate]
- pest or weed control at 200 ppm (Phytophthora infestans): ≥ 80%
- inhibition of growth at 20 ppm (Pythium ultimum): ≥ 80%

Compound: COCN(C(=O)c1cn2c(-c3ccc(NC(=O)OC)nc3)cnc2cn1)c1ccc(C#N)c(OC)c1 [Compound 55, methyl N-[5-[6-[(4-cyano-3-methoxy-phenyl)-(methoxymethyl)carbamoyl]imidazo[1,2-a]pyrazin-3-yl]-2-pyridyl]carbamate]
- pest or weed control at 200 ppm (Plasmopara viticola): ≥ 80%
- inhibition of growth at 20 ppm (Pythium ultimum): ≥ 80%

Compound: CC(=O)Nc1ccc(-c2cnc3cnc(C(=O)N(C)c4ccc(Cl)cc4)cn23)cc1 [Compound 37, 3-(4-acetamidophenyl)-N-(4-chlorophenyl)-N-methyl-imidazo[1,2-a]pyrazine-6-carboxamide]
- pest or weed control at 200 ppm (Plasmopara viticola): ≥ 80%
- pest or weed control at 200 ppm (Phytophthora infestans): ≥ 80%

Compound: CON(C)C(=O)Nc1ccc(-c2cnc3cnc(C(=O)N(C)c4ccc(Cl)cc4)cn23)cc1 [Compound 5, N-(4-chlorophenyl)-3-[4-[[methoxy(methyl)carbamoyl]amino]phenyl]-N-methyl-imidazo[1,2-a]pyrazine-6-carboxamide]
- inhibition of growth at 20 ppm [1]: ≥ 80%

Compound: COCC(=O)Nc1ccc(-c2cnc3cnc(C(=O)N(C)c4ccc(Cl)cc4)cn23)cc1 [Compound 27, N-(4-chlorophenyl)-3-[4-[(2-methoxyacetyl)amino]phenyl]-N-methyl-imidazo[1,2-a]pyrazine-6-carboxamide]
- inhibition of growth at 20 ppm (Pythium ultimum): ≥ 80%

Compound: COc1cc(N(C)C(=O)c2cn3c(-c4ccc(NC(=O)C5CC5)cc4)cnc3cn2)ccc1F [Compound 46, 3-[4-(cyclopropanecarbonylamino)phenyl]-N-(4-fluoro-3-methoxy-phenyl)-N-methyl-imidazo[1,2-a]pyrazine-6-carboxamide]
- pest or weed control at 200 ppm (Phytophthora infestans): ≥ 80%

Compound: COCN(C(=O)c1cn2c(-c3ccc(NC(=O)OC)nc3)cnc2cn1)c1ccc(F)c(OC)c1 [Compound 1, methyl N-[5-[6-[(4-fluoro-3-methoxy-phenyl)-(methoxymethyl)carbamoyl]imidazo[1,2-a]pyrazin-3-yl]-2-pyridyl]carbamate]
- pest or weed control at 200 ppm (Plasmopara viticola): ≥ 80%
- pest or weed control at 200 ppm (Phytophthora infestans): ≥ 80%
- inhibition of growth at 20 ppm (Pythium ultimum): ≥ 80%
